Source: patent publication US11939320B2, “Modulators of the integrated stress pathway” (Calico Life Sciences LLC, priority 2017, dated 2024)

tested on: HEK293T cells carrying the ATF4 luciferase reporter; assay: ATF4-Luc assay (in vitro model of VWMD); type: cell-based; conditions: Homo sapiens, HEK-293T; HEK293T cells with ATF4 5'-UTR firefly luciferase reporter; 1 μg/mL tunicamycin; 7 hours; One Glo luminescence
Experimental: In order to test exemplary compounds of the invention in a cellular context, a stable VWMD cell line was first constructed. The ATF4 reporter was prepared by fusing the human full-length ATF4 5′-UTR (NCBI Accession No. BC022088.2) in front of the firefly luciferase (FLuc) coding sequence lacking the initiator methionine as described in Sidrauski et al (eLife 2013). The construct was used to produce recombinant retroviruses using standard methods and the resulting viral supernatant was used to transduce HEK293T cells, which were then subsequently selected with puromycin to generate a stable cell line.
HEK293T cells carrying the ATF4 luciferase reporter were plated on polylysine coated 384-well plates (Greiner Bio-one) at 30,000 cells per well. Cells were treated the next day with 1 μg/mL tunicamycin and 200 nM of a compound of Formula (I) for 7 hours. Luminescence was measured using One Glo (Promega) as specified by the manufacturer. Cells were maintained in DMEM with L-glutamine supplemented with 10% heat-inactivated FBS (Gibco) and Antibiotic-Antimycotic solution (Gibco).
Table 2 below summarizes the EC50 data obtained using the ATF4-Luc assay for exemplary compounds of the invention.

Compound	EC50
O=C(COc1ccc(Cl)c(Cl)c1)N[C@H]1CC[C@H](C(=O)N(CCO)Cc2ccc(Cl)c(F)c2)CC1 [Compound 180, (1r,4r)-N-[(4-chloro-3-fluorophenyl)methyl]-4-[2-(3,4-dichlorophenoxy)acetamido]-N-(2-hydroxyethyl)cyclohexane-1-carboxamide]	500 to 2000 nM
O=C(COc1ccc(Cl)c(F)c1)N[C@@H]1CC[C@@H](C(=O)NCc2ccc(C(F)(F)F)cc2)OC1 [Compound 158, (2S,5R)-5-[2-(4-chloro-3-fluorophenoxy)acetamido]-N-{[4-(trifluoromethyl)phenyl]methyl}oxane-2-carboxamide]	50 to 250 nM
O=C(COc1ccc(Cl)c(F)c1)N[C@H]1CC[C@H](C(=O)NCc2ccc(OC(F)F)nc2)CC1 [Compound 116, (1r,4r)-4-[2-(4-chloro-3-fluorophenoxy)acetamido]-N-{[6-(difluoromethoxy)pyridin-3-yl]methyl}cyclohexane-1-carboxamide]	50 to 250 nM
O=C(COc1ccc(Cl)c(F)c1)N[C@@H]1CC[C@@H](C(=O)NCc2ccc(OC(F)(F)F)cc2)OC1 [Compound 157, (2S,5R)-5-[2-(4-chloro-3-fluorophenoxy)acetamido]-N-{[4-(trifluoromethoxy)phenyl]methyl}oxane-2-carboxamide]	50 to 250 nM
O=C(COc1ccc(Cl)c(F)c1)N[C@@H]1CC[C@@H](C(=O)NCc2nc(C(F)(F)F)c[nH]2)OC1 [Compound 135, (2S,5R)-5-[2-(4-chloro-3-fluorophenoxy)acetamido]-N-{[4-(trifluoromethyl)-1H-imidazol-2-yl]methyl}oxane-2-carboxamide]	50 to 250 nM
O=C(COc1ccc(Cl)c(F)c1)N[C@H]1C[C@H](C(=O)NCc2ccc(Cl)cn2)C1 [Compound 121, (1r,3r)-3-[2-(4-chloro-3-fluorophenoxy)acetamido]-N-[(5-chloropyridin-2-yl)methyl]cyclobutane-1-carboxamide]	250 to 500 nM
O=C(N[C@@H]1CC[C@@H](C(=O)NCc2ccc(C(F)(F)F)cn2)OC1)C1CNc2cc(Cl)ccc2O1 (mixture of isomers) [Compound 165, 6-chloro-N-[(3R,6S)-6-({[5-(trifluoromethyl)pyridin-2-yl]methyl}carbamoyl)oxan-3-yl]-3,4-dihydro-2H-1,4-benzoxazine-2-carboxamide]	50 to 250 nM
O=C(COc1ccc(Cl)c(F)c1)N[C@@H]1CC[C@@H](C(=O)NCc2ccc(C(F)(F)F)cn2)OC1 [Compound 186, (2S,5R)-5-[2-(4-chloro-3-fluorophenoxy)acetamido]-N-{[5-(trifluoromethyl)pyridin-2-yl]methyl}oxane-2-carboxamide]	10 to 50 nM
O=C(COc1ccc(Cl)c(F)c1)N[C@H]1C[C@H](C(=O)NCc2ccc(Cl)cc2)C1 [Compound 169, (1r,3r)-3-[2-(4-chloro-3-fluorophenoxy)acetamido]-N-[(4-chlorophenyl)methyl]cyclobutane-1-carboxamide]	> 2000 nM
O=C(COc1ccc(Cl)c(F)c1)N[C@H]1CC[C@H](C(=O)N2CCN(c3cccc(Cl)c3)C(=O)C2)CC1 [Compound 126, 2-(4-chloro-3-fluorophenoxy)-N-{(1r,4r)-4-[4-(3-chlorophenyl)-3-oxopiperazine-1-carbonyl]cyclohexyl}acetamide]	500 to 2000 nM
O=C(COc1ccc(Cl)c(F)c1)N[C@@H]1CC[C@@H](C(=O)NCc2ccc3c(c2)OC(F)(F)O3)OC1 [Compound 167, (2S,5R)-5-[2-(4-chloro-3-fluorophenoxy)acetamido]-N-[(2,2-difluoro-2H-1,3-benzodioxol-5-yl)methyl]oxane-2-carboxamide]	50 to 250 nM
O=C(COc1ccc(Cl)c(Cl)c1)N[C@H]1CC[C@H](C(=O)NCc2ccc(C(F)F)cn2)CC1 [Compound 184, (1r,4r)-4-[2-(3,4-dichlorophenoxy)acetamido]-N-{[5-(difluoromethyl)pyridin-2-yl]methyl}cyclohexane-1-carboxamide]	10 to 50 nM
O=C(COc1ccc(Cl)c(F)c1)N[C@H]1CC[C@H](C(=O)NCc2cnco2)CC1 [Compound 118, (1r,4r)-4-[2-(4-chloro-3-fluorophenoxy)acetamido]-N-[(1,3-oxazol-5-yl)methyl]cyclohexane-1-carboxamide]	> 2000 nM
O=C(COc1ccc(Cl)c(F)c1)N[C@@H]1CC[C@@H](C(=O)NCc2cnc(C(F)(F)F)nc2)OC1 [Compound 139, (2S,5R)-5-[2-(4-chloro-3-fluorophenoxy)acetamido]-N-{[2-(trifluoromethyl)pyrimidin-5-yl]methyl}oxane-2-carboxamide]	250 to 500 nM
O=C(COc1ccc(F)c(F)c1)N[C@H]1CC[C@H](C(=O)NCc2nc3cc(Cl)ccc3[nH]2)CC1 [Compound 149, (1r,4r)-N-[(5-chloro-1H-benzimidazol-2-yl)methyl]-4-[2-(3,4-difluorophenoxy)acetamido]cyclohexane-1-carboxamide]	50 to 250 nM
O=C(COc1ccc(Cl)c(F)c1)N[C@H]1CC[C@H](C(=O)NCc2ccc(Cl)c(F)c2)CC1 [Compound 112, (1r,4r)-4-[2-(4-chloro-3-fluorophenoxy)acetamido]-N-[(4-chloro-3-fluorophenyl)methyl]cyclohexane-1-carboxamide]	< 10 nM
O=C(COc1ccc(Cl)c(F)c1)N[C@H]1CC[C@H](C(=O)NCc2ccc(C(F)(F)F)cn2)OC1 [Compound 159, (2R,5S)-5-[2-(4-chloro-3-fluorophenoxy)acetamido]-N-{[5-(trifluoromethyl)pyridin-2-yl]methyl}oxane-2-carboxamide]	10 to 50 nM
O=C(COc1ccc(Cl)c(F)c1)NC1CCC(C(=O)NCc2ccc(C(F)(F)F)cn2)OC1 (stereo not drawn) [Compound 166, 5-[2-(4-chloro-3-fluorophenoxy)acetamido]-N-{[5-(trifluoromethyl)pyridin-2-yl]methyl}oxane-2-carboxamide]	> 2000 nM
O=C(COc1ccc(Cl)c(F)c1)N[C@H]1CC[C@H](C(=O)Nc2ccc(Cl)c(F)c2)CC1 [Compound 111, (1r,4r)-4-[2-(4-chloro-3-fluorophenoxy)acetamido]-N-(4-chloro-3-fluorophenyl)cyclohexane-1-carboxamide]	10 to 50 nM
O=C(COc1ccc(Cl)c(F)c1)N[C@H]1CC[C@H](C(=O)Nc2ccc(OC(F)(F)F)nc2)CC1 [Compound 177, (1r,4r)-4-[2-(4-chloro-3-fluorophenoxy)acetamido]-N-[6-(trifluoromethoxy)pyridin-3-yl]cyclohexane-1-carboxamide]	< 10 nM
O=C(COc1ccc(Cl)c(F)c1)N[C@H]1CC[C@H](C(=O)Nc2ccc(OC(F)(F)F)cn2)CC1 [Compound 110, (1r,4r)-4-[2-(4-chloro-3-fluorophenoxy)acetamido]-N-[5-(trifluoromethoxy)pyridin-2-yl]cyclohexane-1-carboxamide]	10 to 50 nM
O=C(COc1ccc(Cl)c(Cl)c1)N[C@H]1CC[C@H](C(=O)NCc2ccc(C(F)(F)F)cn2)CC1 [Compound 183, (1r,4r)-4-[2-(3,4-dichlorophenoxy)acetamido]-N-{[5-(trifluoromethyl)pyridin-2-yl]methyl}cyclohexane-1-carboxamide]	< 10 nM
O=C(COc1ccc(Cl)c(F)c1)N[C@@H]1CC[C@@H](C(=O)NCCOc2ccc(Cl)cc2)OC1 [Compound 137, (2S,5R)-5-[2-(4-chloro-3-fluorophenoxy)acetamido]-N-[2-(4-chlorophenoxy)ethyl]oxane-2-carboxamide]	10 to 50 nM
O=C(COc1ccc(Cl)c(F)c1)N[C@@H]1CC[C@@H](C(=O)NC2(c3ccc(Cl)cc3)CC2)OC1 [Compound 141, (2S,5R)-5-[2-(4-chloro-3-fluorophenoxy)acetamido]-N-[1-(4-chlorophenyl)cyclopropyl]oxane-2-carboxamide]	> 2000 nM
O=C(COc1ccc(Cl)c(F)c1)N[C@H]1CC[C@H](C(=O)N2CC3(CN(c4ccc(Cl)c(F)c4)C3)C2)CC1 [Compound 124, 2-(4-chloro-3-fluorophenoxy)-N-{(1r,4r)-4-[6-(4-chloro-3-fluorophenyl)-2,6-diazaspiro[3.3]heptane-2-carbonyl]cyclohexyl}acetamide]	> 2000 nM
O=C(COc1ccc(Cl)c(F)c1)N[C@@H]1CC[C@@H](C(=O)N2CC(c3ccc(Cl)cc3)C2)OC1 [Compound 160, 2-(4-chloro-3-fluorophenoxy)-N-{(3R,6S)-6-[3-(4-chlorophenyl)azetidine-1-carbonyl]oxan-3-yl}acetamide]	10 to 50 nM
O=C(COc1ccc(Cl)c(F)c1)N[C@H]1C[C@H](C(=O)Nc2ccc(OC(F)F)nc2)C1 [Compound 168, (1r,3r)-3-[2-(4-chloro-3-fluorophenoxy)acetamido]-N-[6-(difluoromethoxy)pyridin-3-yl]cyclobutane-1-carboxamide]	> 2000 nM
O=C(COc1ccc(Cl)c(F)c1)N[C@H]1CC[C@H](C(=O)N2CC(c3ccccc3)C2)CC1 [Compound 131, 2-(4-chloro-3-fluorophenoxy)-N-[(1r,4r)-4-(3-phenylazetidine-1-carbonyl)cyclohexyl]acetamide]	10 to 50 nM
O=C(COc1ccc(Cl)c(Cl)c1)N[C@H]1CC[C@H](C(=O)NCc2nc3cc(F)c(F)cc3[nH]2)CC1 [Compound 152, (1r,4r)-4-[2-(3,4-dichlorophenoxy)acetamido]-N-[(5,6-difluoro-1H-benzimidazol-2-yl)methyl]cyclohexane-1-carboxamide]	> 2000 nM
O=C(COc1ccc(Cl)cc1)N[C@H]1CC[C@H](C(=O)NCc2nc3cc(F)c(F)cc3[nH]2)CC1 [Compound 155, (1r,4r)-4-[2-(4-chlorophenoxy)acetamido]-N-[(5,6-difluoro-1H-benzimidazol-2-yl)methyl]cyclohexane-1-carboxamide]	500 to 2000 nM
